From article PMC3731256, “Optimization of Substituted 6-Salicyl-4-Anilinoquinazoline Derivatives as Dual EGFR/HER2 Tyrosine Kinase Inhibitors” (PLoS ONE, 2013)

Tests used:
A549 cells = assay: Antiproliferation WST-1 assay, A549; type: cell-based, human; details: WST-1 assay; A549 carcinomic human alveolar basal epithelial cell; read-out: Cellular IC50, A549
Protocol: (§1) WST-1 is better than MTT for analyzing cell proliferation, because it can be reduced to soluble formazan by dehydrogenase in mitochondria and has little toxicity to cells. Cell proliferation was determined using WST-1 dye (Beyotime Inst Biotech, China) according to manufacture’s instructions. Brieﬂy, 5 × 10^3 cells per well were seeded in a 96-well plate, grown at 37 ℃ for 24 h, and then placed in serum-starved conditions for a further 6 h. Subsequently, cells were treated with compounds (Table 1) at increasing concentrations in the presence of 10% FBS for 24 or 48h. After 10 µL WST-1 dye was added to each well, cells were incubated at 37 ℃ for 2 h and the absorbance was ﬁnally determined at 450 nm using a microplate reader.

A431 cells = assay: Antiproliferation WST-1 assay, A431; type: cell-based, human; details: Homo sapiens, A-431, WST-1 assay; A431, overexpression of EGFR; read-out: Cellular IC50, A431
Protocol: as §1

human HER2 = molecular target: T1, human HER2 (Homo sapiens, UniProt P04626); assay: HER2 kinase assay ([γ-32P] ATP, poly-Glu-Tyr); type: biochemical; details: phosphorylation of poly-Glu-Tyr copolymer; mean, >1 determination; read-out: Enzyme activity IC50 against HER2 kinase
T1 construct: The cytoplasmic domain (amino acids 676-1255) of human HER2; FLAG (DYKDDDD) (N); made in house
Protocol: (§2) The expressed HER2 kinase and EGFR kinase were purified by anti-FLAG M2 affinity gel (Sigma-Aldrich, USA). The HER2 and EGFR kinase assays were performed using radiolabeled [γ-^32P] ATP (GEHealthcare, USA) in 96-well plates. The kinase reactions were performed in 50 mmol/L Tris-HCl, pH7.5, 5 mmol/L MnCl2, 0.01% Tween-20 and 2 mmol/L DTT containing 0.9 μCi of [γ-^32P] ATP per reaction, 50 μmol/L ATP, 5 μg/mL poly-Glu-Tyr (4:1) and 0.25 μg/mL of purified Her2 or EGFR cytoplasmic domain in a total volume of 50 μL. […] Kinase reactions were initiated by adding ATP. After the kinase reaction incubated for 10 minutes at room temperature, reactions were terminated by the addition of 10% (final concentration) trichloroacetic acid. The [γ-^32P]-phosphorylated proteins were filtered in a harvest plate (Millipore, USA) with a cell harvester (PerkinElmer, USA) and washed free of [γ-^32P] ATP with 3% phosphoric acid. The plates were dried, followed by the addition of 25 μL of MicroScintO (PerkinElmer, USA). Radioactivity was counted by a Topcount scintillation counter (PerkinElmer, USA).

human EGFR = molecular target: T2, human EGFR (Homo sapiens, UniProt P00533); assay: EGFR kinase assay ([γ-32P] ATP, poly-Glu-Tyr); type: biochemical
T2 construct: the cytoplasmic domain (amino acids 669-1210) of human EGFR; FLAG (DYKDDDD) (N); made in house
Protocol: as §2

VEGFR2 = molecular target: T3, VEGFR2 (Homo sapiens, UniProt P35968); assay: Tyrosine kinase profiling (Alphascreen), VEGFR2; type: biochemical; details: ATP concentration = Km
T3 construct: The cytoplasmic domain of vascular endothelial growth factor receptor 2 (VEGFR2); purchased Millipore Corp
Protocol: (§3) The cytoplasmic domain of vascular endothelial growth factor receptor 2 (VEGFR2), platelet-derived growth factor receptor α (PDGFRα), cSRC were purchased from Millipore Corp. Assays for 3 tyrosine kinases were performed in 384 well plates using the Alphascreen® system (PerkinElmer) at room temperature. Enzyme reactions were performed in 50 mM Tris–HCl, pH7.5, 5 mM MnCl2, 5 mM MgCl2, 0.01% Tween-20, 2 mM dithiothreitol and 0.1 μg/ml biotinylated poly-GluTyr (4:1) containing optimized concentration of enzyme and ATP as described below.
(§4) Prior to the kinase reaction, compound and enzyme were incubated for 5 min at room temperature. The reactions were initiated by adding ATP. After the reaction period as described below at room temperature, the reactions were stopped by the addition of 25 μl of 100 mM EDTA, 10 μg/ml Alphascreen streptavidin donor beads and 10 μg/ml acceptor beads described below in 62.5 mM HEPES, pH 7.4, 250 mM NaCl, and 0.1% BSA. Plates were incubated in the dark for more than 12 h and then read by EnVision 2102 Multilabel Reader (PerkinElmer). The well containing substrate and enzyme without compound was used as total reaction control. […]

H1781 cells = assay: Antiproliferation WST-1 assay, H1781; type: cell-based; details: NCI-H1781, NSCLC, HER-2 G776ins V_G/C, lapatinib-resistant
Protocol: as §1

PDGFRα = molecular target: T4, PDGFRα (Homo sapiens, UniProt P16234); assay: Tyrosine kinase profiling (Alphascreen), PDGFRα; type: biochemical; details: ATP concentration = Km
T4 construct: The cytoplasmic domain of vascular endothelial growth factor receptor 2 (VEGFR2), platelet-derived growth factor receptor α (PDGFRα); purchased Millipore Corp
Protocol: as §3, §4

MCF-7 cells = assay: Antiproliferation WST-1 assay, MCF-7; type: cell-based, human; details: Homo sapiens, MCF7, WST-1 assay; MCF-7 breast cancer, Her2/neu overexpression; read-out: Cellular IC50, MCF-7
Protocol: as §1

H1975 cells = assay: Antiproliferation WST-1 assay, H1975; type: cell-based; details: Homo sapiens, NCI-H1975, NSCLC, EGFR L858R/T790M
Protocol: as §1

cSRC = molecular target: T5, cSRC (Homo sapiens, UniProt P12931); assay: Tyrosine kinase profiling (Alphascreen), cSRC; type: biochemical; details: ATP concentration = Km
T5 construct: purchased Millipore Corp
Protocol: as §3, §4

T2 sequence (P00533 669-1210): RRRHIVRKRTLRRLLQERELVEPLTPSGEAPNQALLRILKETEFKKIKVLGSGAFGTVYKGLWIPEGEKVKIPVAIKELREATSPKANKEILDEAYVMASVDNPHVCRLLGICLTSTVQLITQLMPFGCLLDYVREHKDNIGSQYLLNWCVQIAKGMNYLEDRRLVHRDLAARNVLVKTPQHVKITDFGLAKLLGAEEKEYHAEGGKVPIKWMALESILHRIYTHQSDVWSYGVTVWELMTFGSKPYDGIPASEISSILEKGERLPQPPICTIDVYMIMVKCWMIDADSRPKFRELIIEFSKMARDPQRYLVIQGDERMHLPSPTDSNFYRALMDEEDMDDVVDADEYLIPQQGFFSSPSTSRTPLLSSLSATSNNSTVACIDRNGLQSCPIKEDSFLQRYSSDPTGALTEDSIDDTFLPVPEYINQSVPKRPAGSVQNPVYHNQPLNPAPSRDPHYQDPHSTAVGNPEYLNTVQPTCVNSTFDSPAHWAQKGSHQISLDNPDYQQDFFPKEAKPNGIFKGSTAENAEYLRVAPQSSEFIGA
T5 sequence (P12931 whole entry, species assumed): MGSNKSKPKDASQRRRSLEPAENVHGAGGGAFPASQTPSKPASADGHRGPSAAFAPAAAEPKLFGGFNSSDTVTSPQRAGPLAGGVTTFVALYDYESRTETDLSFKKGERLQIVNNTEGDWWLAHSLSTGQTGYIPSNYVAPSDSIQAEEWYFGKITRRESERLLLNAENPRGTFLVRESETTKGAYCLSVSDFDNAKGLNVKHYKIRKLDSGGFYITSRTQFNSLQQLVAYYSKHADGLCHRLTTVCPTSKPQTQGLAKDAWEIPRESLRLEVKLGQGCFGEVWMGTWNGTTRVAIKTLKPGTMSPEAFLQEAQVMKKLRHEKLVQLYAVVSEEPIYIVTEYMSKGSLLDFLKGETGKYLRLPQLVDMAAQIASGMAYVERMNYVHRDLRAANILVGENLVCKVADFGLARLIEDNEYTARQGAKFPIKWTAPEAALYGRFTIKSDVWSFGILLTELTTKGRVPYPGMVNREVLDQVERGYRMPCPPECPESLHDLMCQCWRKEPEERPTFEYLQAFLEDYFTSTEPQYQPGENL
T4 sequence (P16234 550-1089 limits assumed, species assumed): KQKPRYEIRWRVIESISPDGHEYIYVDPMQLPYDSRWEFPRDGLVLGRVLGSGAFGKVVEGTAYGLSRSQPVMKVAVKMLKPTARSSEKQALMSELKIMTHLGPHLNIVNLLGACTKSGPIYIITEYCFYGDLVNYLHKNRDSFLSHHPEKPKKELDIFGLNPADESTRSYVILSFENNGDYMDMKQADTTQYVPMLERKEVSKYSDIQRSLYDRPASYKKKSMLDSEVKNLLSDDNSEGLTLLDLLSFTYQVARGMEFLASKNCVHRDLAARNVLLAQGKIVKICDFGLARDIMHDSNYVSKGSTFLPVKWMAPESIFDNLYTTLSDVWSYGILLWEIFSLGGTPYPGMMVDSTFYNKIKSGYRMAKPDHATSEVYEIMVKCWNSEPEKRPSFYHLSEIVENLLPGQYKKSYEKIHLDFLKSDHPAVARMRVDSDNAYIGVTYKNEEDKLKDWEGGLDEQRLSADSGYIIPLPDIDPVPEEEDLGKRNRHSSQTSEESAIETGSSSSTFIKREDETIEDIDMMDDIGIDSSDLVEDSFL
T3 sequence (P35968 786-1356 limits assumed, species assumed): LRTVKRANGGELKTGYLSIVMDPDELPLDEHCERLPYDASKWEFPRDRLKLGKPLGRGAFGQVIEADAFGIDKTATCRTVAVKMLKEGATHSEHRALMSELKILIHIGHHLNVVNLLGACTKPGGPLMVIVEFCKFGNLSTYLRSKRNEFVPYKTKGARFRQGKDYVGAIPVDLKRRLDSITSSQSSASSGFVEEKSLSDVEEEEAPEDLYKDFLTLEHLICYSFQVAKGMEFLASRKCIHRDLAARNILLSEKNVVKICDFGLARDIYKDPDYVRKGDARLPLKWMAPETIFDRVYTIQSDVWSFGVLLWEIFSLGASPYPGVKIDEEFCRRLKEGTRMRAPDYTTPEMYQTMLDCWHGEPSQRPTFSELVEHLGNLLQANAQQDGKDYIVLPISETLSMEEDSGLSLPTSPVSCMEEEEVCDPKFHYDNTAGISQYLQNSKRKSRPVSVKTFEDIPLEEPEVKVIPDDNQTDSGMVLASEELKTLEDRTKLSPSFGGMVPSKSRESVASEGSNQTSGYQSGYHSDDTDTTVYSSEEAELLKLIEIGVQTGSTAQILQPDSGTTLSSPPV
T1 sequence (P04626 676-1255): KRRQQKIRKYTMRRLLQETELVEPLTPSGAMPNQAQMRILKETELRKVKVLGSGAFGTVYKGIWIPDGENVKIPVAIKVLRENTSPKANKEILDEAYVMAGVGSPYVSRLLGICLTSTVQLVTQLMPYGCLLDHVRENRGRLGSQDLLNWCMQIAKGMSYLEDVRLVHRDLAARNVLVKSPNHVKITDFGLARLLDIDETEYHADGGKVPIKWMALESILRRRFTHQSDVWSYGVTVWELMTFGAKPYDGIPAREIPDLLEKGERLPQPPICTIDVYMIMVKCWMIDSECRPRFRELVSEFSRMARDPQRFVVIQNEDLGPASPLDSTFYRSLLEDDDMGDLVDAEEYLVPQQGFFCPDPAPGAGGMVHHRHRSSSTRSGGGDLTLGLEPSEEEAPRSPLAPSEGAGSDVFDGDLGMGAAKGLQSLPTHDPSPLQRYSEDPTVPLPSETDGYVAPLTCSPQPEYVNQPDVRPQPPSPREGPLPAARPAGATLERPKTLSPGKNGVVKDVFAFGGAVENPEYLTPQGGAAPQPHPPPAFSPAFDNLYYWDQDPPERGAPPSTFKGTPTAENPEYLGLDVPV

**Q.** Which results are given for `O=C(Nc1ccc2ncnc(Nc3cccc(Br)c3)c2c1)c1ccc(C(F)(F)F)cc1O` [Compound 21, N-(4-(3-bromophenylamino)quinazolin-6-yl)-2-hydroxy-4-(trifluoromethyl)benzamide]?
**A.** IC50 (A549 cells): 1.64 ± 0.027 µM; IC50 (A431 cells): 0.67 ± 0.002 µM; IC50 (human HER2): 0.096 ± 0.004 µM; pIC50 EGFR (human EGFR; converted from IC50 by online calculator): 6.92; IC50 (human EGFR; phosphorylation of poly-Glu-Tyr copolymer, mean, >1 determination, read-out: Enzyme activity IC50 against EGFR kinase): 0.12 ± 0.012 µM; IC50 (VEGFR2): 29.2 ± 0.98 µM; IC50 (H1781 cells): 0.77 ± 0.034 µM; IC50 (PDGFRα): 17.3 ± 0.06 µM; melting point: 289 to 291 °C; IC50 (MCF-7 cells): 0.49 ± 0.018 µM; IC50 (H1975 cells): 3.3 ± 0.233 µM; IC50 (cSRC): 11.9 ± 0.78 µM
